{
  "source": "patent US6140309A",
  "about": "“Vasoactive effects and free radical generation by β-amyloid peptides” (University of South Florida, priority 1996, dated 2000)",
  "key": {"aortic rings": {"tested_on": "aortic rings", "test": "β-amyloid augmentation of phenylephrine (PE) induced contraction of aortic rings", "type": "cell-based, rat", "conditions": "for effect of drug on β-amyloid induced enhancement of PE mediated contraction: β-amyloid 5×10^-7 M, PE 4×10^-8 M, L-NMMA 10^-4 M, indomethacin 10^-5 M, SQ 29548 10^-5 M, catalase 1000 units/ml", "experimental": "(§1) Freshly excised rat and porcine blood vessels were placed in Kreb's bicarbonate buffer equilibrated with 5% CO2 in O2. The buffer composition consisted of 118.2 mM NaCl, 4.7 mM KCl, 1.2 mM MgSO4, 2.5 mM CaCl2, 1.2 mM NaH2 PO4, 23 mM NaHCO3 and 11.2 mM glucose. After cleaning the vessels free of fat and other adhering tissues, the vessels were cut into ring segments of approximately 3mm in length. Care was taken not to damage the intimal surface.\n(§2) The blood vessel preparations were mounted on stainless steel hooks attached to a force-displacement transducer and equilibrated under the optimum tension of 1.3 g for a period of sixty minutes in a tissue bath (10 ml) containing oxygenated (5% CO2 in O2) Kreb's buffer at 37° C. The buffer was changed every fifteen minutes. After equilibration for sixty minutes the viability of the blood vessel with intact endothelium was established by constricting the blood vessel using phenylephrine ([…]). This dose of phenylephrine elicited 80% of the maximum response. […] The vessel preparations were washed for fifteen minutes before various manipulations as described below.\nThe procedure was then repeated following incubation of the tissue with 10^-6 M β-amyloid for fifteen minutes (P1). The tissue was then rinsed and contractions repeated twice following fifteen minute incubation (P2 & P3) without further addition of β-amyloid. Arrows are shown for points of addition for P3.\nFollowing a fifteen minute incubation, the preparations were contracted with 10^-7 M phenylephrine (PE) as described earlier. Control contractions with PE alone were carried out in presence of the various test compounds. Values represent the mean ±SEM of four or more experiments. The heat-inactivated SOD was prepared by placing it in boiling water for thirty minutes followed by cooling prior to use. The hydrogen peroxide-inactivated SOD was prepared by exposing SOD to 10 mM H2 O2 for thirty minutes at pH 8.5 and subsequent separation using Microcon filtration system. The amyloid induced PE contraction was blocked by active SOD. Neither albumin or inactivated SOD had any effect on the amyloid activity.\nThe effect of preincubation of blood vessel with 10^-6 M β-amyloidon contraction induced by phenylephrine (2,4,8, & 16×10^-8 M is shown in Table 1). The maximum contraction in the absence of β-amyloid is taken as 100% and the values obtained following exposure to β-amyloid are expressed as percent of control value. After washing out phenylephrine and acetylcholine of the control contraction, β-amyloid augmented the phenylephrine induced contractions (P1). This effect was blocked by SOD. Washing out the phenylephrine and acetylcholine of the post peptide contraction and repeating the contractions caused further enhancement (P2). Values represent the mean ±SEM of nine or more experiments.\nThe tissue was then incubated for fifteen minutes with β-amyloid (5×10^-7 M) with or without the drug, followed by contractions with PE. The concentrations compounds used were: L-NMMA, an inhibitor of NO synthase (10^-4 M); indomethacin, an inhibitor of the cyclooxygenase pathway (10^-5 M); SQ 29548, a thromboxane A2 receptor antagonist (10^-5 M); and catalase (1000 units/ml). Values are represented as percentage of the maximal contraction obtained with β-amyloid and PE alone and standardized to remove the intrinsic effects (if any) of each drug on PE contraction alone. The results represent the mean ±SEM of five or more experiments."}, "rat coronary arteries": {"tested_on": "rat coronary arteries", "test": "Constriction of rat coronary arteries by β-amyloid peptides and potentiation of U46619 constriction", "type": "cell-based", "conditions": "for coronary artery vasoactivity induced by β-amyloid fragments (real time recording): 10^-6 M β-amyloid peptide", "experimental": "The effects of β-amyloid peptide were examined on samples of rat coronary arteries prepared as described above. Referring specifically to FIG. 1, rat coronary arteries were treated with β-amyloid peptide (Aβ40) causing constriction of the coronary arteries.\nFIG. 3 illustrates the effect of various amyloid fragments on the constriction of rat coronary arteries. Following control constriction with 10^-7 M U46619, the tissue samples were rinsed, equilibrated with buffer, and treated with 10^-6 M Aβ peptides for fifteen minutes. Following treatment with the Aβ peptides, the blood vessels were rinsed and again exposed to U46619. The values are expressed as percent of control constriction produced by U46619 alone."}, "blood vessel": {"tested_on": "blood vessel", "test": "Viability and endothelium test of blood vessel rings: phenylephrine constriction, acetylcholine relaxation", "type": "cell-based, rat", "conditions": "vessel with or without endothelium", "experimental": "as §1\nThe endothelium was removed from some preparations by rubbing the inside of the lumen with a metal spatula for six to ten seconds and subsequent rinsing with buffer. The removal of endothelium was confirmed by testing for relaxation to acetylcholine [Furchgott and Zawadzki, 1980].\nas §2"}, "coronary arteries": {"tested_on": "coronary arteries", "test": "Acetylcholine induced relaxation of U46619-preconstricted coronary arteries after Aβ40", "type": "cell-based, rat", "conditions": "single dose 10^-6 M Aβ40; 10^-7 M U46619; acetylcholine 10^-9 M to 10^-5 M", "from_the_text": "The effect of pretreatment of coronary arteries with a single dose (10^-6 M) of Aβ40 on acetylcholine induced relaxation is shown in FIG. 20. The blood vessel was preconstricted with 10^-7 M U46619 and relaxed with increasing doses of acetylcholine (10^-9 M to 10^-5 M)."}},
  "data": [
    {"compound": "CNC(=N)NCCC[C@H](N)C(=O)O", "note": "[L-NMMA]", "values": [
      {"measurement": "effect of drug on β-amyloid induced enhancement of PE mediated contraction", "setting": "aortic rings", "result": "none of the compounds used (L-NMMA, indomethacin, SQ29548, or catalase) had any significant effect on the enhancement response"}
    ]},
    {"compound": "O=C(O)CCC/C=C\\C[C@@H]1[C@H](CNNC(=O)Nc2ccccc2)[C@H]2CC[C@@H]1O2", "note": "[SQ29548]", "values": [
      {"measurement": "effect of drug on β-amyloid induced enhancement of PE mediated contraction", "setting": "aortic rings", "result": "none of the compounds used (L-NMMA, indomethacin, SQ29548, or catalase) had any significant effect on the enhancement response"}
    ]},
    {"compound": "CCCCC[C@H](O)/C=C/[C@@H]1[C@@H](C/C=C\\CCCC(=O)O)[C@H]2CO[C@@H]1C2", "note": "[U46619]", "values": [
      {"measurement": "effect of the vasoconstrictor on the coronary artery", "setting": "rat coronary arteries; U46619 10^-7 M", "result": "also caused constriction of the blood vessel"}
    ]},
    {"compound": "COc1ccc2c(c1)c(CC(=O)O)c(C)n2C(=O)c1ccc(Cl)cc1", "note": "[indomethacin]", "values": [
      {"measurement": "effect of drug on β-amyloid induced enhancement of PE mediated contraction", "setting": "aortic rings", "result": "none of the compounds used (L-NMMA, indomethacin, SQ29548, or catalase) had any significant effect on the enhancement response"}
    ]},
    {"compound": "CNC[C@H](O)c1cccc(O)c1", "note": "[phenylephrine]", "values": [
      {"measurement": "constriction in response to phenylephrine", "setting": "blood vessel", "result": "constricted in response to phenylephrine with or without endothelium"}
    ]},
    {"compound": "Aβ25-35: β-amyloid peptide fragment (GSNKGAIIGLM; Amyloid-beta protein 42; UniProt P05067 696-706, looked up, fragment)", "values": [
      {"measurement": "coronary artery vasoactivity induced by β-amyloid fragments (real time recording)", "setting": "rat coronary arteries", "result": "induce constriction of the coronary artery"}
    ]},
    {"compound": "Aβ40: Soluble Aβ containing forty amino acids", "values": [
      {"measurement": "duration of constriction compared among fragments", "setting": "rat coronary arteries; 10^-6 M", "result": "longest sustained constriction"},
      {"measurement": "contraction induced in rat coronary artery", "setting": "rat coronary arteries; 10^-6 M Aβ, fifteen minutes", "result": "small but detectable contraction"},
      {"measurement": "coronary artery vasoactivity induced by β-amyloid fragments (real time recording)", "setting": "rat coronary arteries", "result": "induce constriction of the coronary artery"},
      {"measurement": "vasoconstriction induced by U46619 following treatment with Aβ", "setting": "rat coronary arteries; U46619 10^-7 M, 10^-6 M Aβ fifteen minutes", "result": "significantly potentiated"},
      {"measurement": "effect on vasodilation induced by acetylcholine", "setting": "coronary arteries", "result": "significantly reduced the vasodilation induced by acetylcholine"}
    ]},
    {"compound": "albumin", "values": [
      {"measurement": "effect of test compound on amyloid induced PE contraction (specificity of SOD action)", "setting": "aortic rings; preincubation before 10^-6 M β-amyloid, fifteen minutes, 10^-7 M PE (FIG. 12c)", "result": "did not protect the blood vessel against the effects of β-amyloid"}
    ]},
    {"compound": "catalase", "values": [
      {"measurement": "effect of drug on β-amyloid induced enhancement of PE mediated contraction", "setting": "aortic rings", "result": "none of the compounds used (L-NMMA, indomethacin, SQ29548, or catalase) had any significant effect on the enhancement response"}
    ]}
  ]
}
